Patent US8361988B2, “Nucleoside and nucleotide analogues with quaternary carbon centers and methods of use” (Institut de Recherches Cliniques de Montreal, priority 2007, dated 2013)

What was measured:
[1] = MTT cell proliferation assay, PFSK-1; assay type: cell-based; details: human, PFSK-1 cells, concentration causing 50% cell death of initial cell count over 24 hours, 1% DMSO
Description: (§1) The antitumor activities of the compounds of the invention were evaluated by a cellular proliferation assay. […] The cleavage reaction form a purple formazan crystals which is largely impermeable to cell membranes resulting in its accumulation within healthy cells. Solubilisation of the cells by addition of a detergent liberates and solubilizes the formazan crystals. The number of surviving cells is directly proportional to the level of the formazan product created. The color can then be quantified spectrophotometrically. The production of purple formazan in cells treated with a compound is measured relative to the production in control cells, and dose-response curves can be generated. This assay measures the cell proliferation rate and conversely, when metabolic events lead to apoptosis or necrosis, the reduction in cell viability, thus also allowing the evaluation of the cytotoxicity of the analogues synthesized in the laboratory.
(§2) For Tables 3 and 4, the assays were performed with 1% DMSO. The abbreviation “n.d.” means “not determined.” The values EC50, CC50, and SI have the following definitions.
(§3) Cell growth equals total cell count without any inhibitor after 72 hours minus initial cell count.
(§4) SI: Selectivity Index is the ratio CC50/EC50.

PFSK-1 = assay: MTT cell proliferation assay, PFSK-1; assay type: cell-based; details: Homo sapiens, PFSK-1, 72 h, concentration reducing cell growth by 50% after 72 hours, 1% DMSO
Description: as §1, §2, §3, §4

[2] = MTT cell proliferation assay, ZR-75-1; assay type: cell-based; details: human, ZR-75-1 cells, concentration causing 50% cell death of initial cell count over 24 hours, 1% DMSO
Description: (§5) The antitumor activities of the compounds of the invention were evaluated by a cellular proliferation assay. The MTT [3-(4,5-dimethylthiazol-2-yl)-2,5-diphenyltetrazolium bromide] cell proliferation assay, first described by Mosmann (Mosmann T., “Rapid colorimetric assay for cellular growth and survival: application to proliferation and cytotoxicity assays,” J. Immunol. Methods 1983 Dec. 16; 65(1-2):55-63, and incorporated by reference in its entirety) is based on the ability of active mitochondrial reductase enzymes from viable cells to cleave the tetrazolium rings of the pale yellow MTT. The cleavage reaction form a purple formazan crystals which is largely impermeable to cell membranes resulting in its accumulation within healthy cells. Solubilisation of the cells by addition of a detergent liberates and solubilizes the formazan crystals. The number of surviving cells is directly proportional to the level of the formazan product created. The color can then be quantified spectrophotometrically. The production of purple formazan in cells treated with a compound is measured relative to the production in control cells, and dose-response curves can be generated. This assay measures the cell proliferation rate and conversely, when metabolic events lead to apoptosis or necrosis, the reduction in cell viability, thus also allowing the evaluation of the cytotoxicity of the analogues synthesized in the laboratory.
as §2
(§6) Cell growth equals total cell count without any inhibitor after 72 hours minus initial cell count. Total cell counts after 72 hrs of growth range from 230 to 346% of initial cell counts depending on the cell line.
(§7) Total cell counts after 24 hrs of growth range from 103 to 109% of initial cell counts depending on the cell line.
as §4

ZR-75-1 = assay: MTT cell proliferation assay, ZR-75-1; assay type: cell-based; details: Homo sapiens, ZR-75-1, 72 h, concentration reducing cell growth by 50% after 72 hours, 1% DMSO
Description: as §5, §2, §6, §7, §4

[3] = target: T1, Drosophila melanogaster dNK (Drosophila melanogaster, UniProt Q9XZT6); assay: Phosphorylation assay (spectrophotometric coupled-enzyme), D. melanogaster dNK; assay type: biochemical; details: substrate at 100 μM, 37° C., 1 mM ATP, triplicate
T1 sequence (Q9XZT6 1-250): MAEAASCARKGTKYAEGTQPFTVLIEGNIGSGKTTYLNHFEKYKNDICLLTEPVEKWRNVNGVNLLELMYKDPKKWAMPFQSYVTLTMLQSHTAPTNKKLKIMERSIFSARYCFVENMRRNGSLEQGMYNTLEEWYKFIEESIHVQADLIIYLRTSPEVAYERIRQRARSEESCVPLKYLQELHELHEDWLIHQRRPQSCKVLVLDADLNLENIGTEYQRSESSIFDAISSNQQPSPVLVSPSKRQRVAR
Description: Compounds of the invention were also tested in a phosphorylation assay using three deoxynucleoside kinases. […] The compounds were at substrate concentration of 100 μM.
Kinetic assay. […] Briefly, the individual nucleosides at 100 μM were prepared in reaction buffer containing 50 mM Tris-HCl (pH 7.5), 0.1 M KCl, 5 mM MgCl2, 1 mM DTT, 1 mM ATP, 0.21 mM phosphoenolpyruvate, 0.18 mM NADH, and 2 units/ml pyruvate kinase and 2 units/ml lactate dehydrogenase (Roche Biochemicals, Indianapolis, Ind.). Assays were performed at 37° C. by measuring the absorbance change at 340 nm. The enzyme amount was adjusted to limit NADH turnover to 10% over the time of the experiment. All experiments were performed in triplicate.

[4] = target: Thermotoga maritima thymidine kinase (Thermotoga maritima, UniProt Q9WYN2); assay: Phosphorylation assay (spectrophotometric coupled-enzyme), T. maritima TK; assay type: biochemical; details: substrate at 100 μM, 37° C., 1 mM ATP, triplicate
Description: Compounds of the invention were also tested in a phosphorylation assay using three deoxynucleoside kinases. The kinases include human dCK, which is responsible for the activation of numerous nucleoside analog prodrugs; Drosophila melanogaster dNK, which is the fastest known kinases with the broadest substrate specificity profile; and Thermotoga maritima thymidine kinase, which is a good surrogate for human thymidine kinase 1, a member of the distinct type II kinase subfamily. The compounds were at substrate concentration of 100 μM.
Kinetic assay. Substrate phosphorylation was determined using a spectrophotometric coupled-enzyme assay (Munch-Petersen et al. (2000) J. Biol. Chem. vol. 275p. 66′73-66′79; Schelling et al. (2001) Anal. Biochem vol. 295 p. 82-8′7). Briefly, the individual nucleosides at 100 μM were prepared in reaction buffer containing 50 mM Tris-HCl (pH 7.5), 0.1 M KCl, 5 mM MgCl2, 1 mM DTT, 1 mM ATP, 0.21 mM phosphoenolpyruvate, 0.18 mM NADH, and 2 units/ml pyruvate kinase and 2 units/ml lactate dehydrogenase (Roche Biochemicals, Indianapolis, Ind.). Assays were performed at 37° C. by measuring the absorbance change at 340 nm. The enzyme amount was adjusted to limit NADH turnover to 10% over the time of the experiment. All experiments were performed in triplicate.

in vitro [5] = details: human, MOLT-4 cells
in vitro [6] = details: human, NCI H1395 cells
in vitro [7] = details: human, NCI H2052 cells
[8] = MTT cell proliferation assay, Panc 02.03; assay type: cell-based; details: human, Panc 02.03 cells, concentration causing 50% cell death of initial cell count over 24 hours, 1% DMSO
Description: as §1, §2, §3, §4

Panc 02.03 = assay: MTT cell proliferation assay, Panc 02.03; assay type: cell-based; details: Homo sapiens, concentration reducing cell growth by 50% after 72 hours, 1% DMSO
Description: as §1, §2, §3, §4

Chain of Thermotoga maritima thymidine kinase (Q9WYN2 whole entry): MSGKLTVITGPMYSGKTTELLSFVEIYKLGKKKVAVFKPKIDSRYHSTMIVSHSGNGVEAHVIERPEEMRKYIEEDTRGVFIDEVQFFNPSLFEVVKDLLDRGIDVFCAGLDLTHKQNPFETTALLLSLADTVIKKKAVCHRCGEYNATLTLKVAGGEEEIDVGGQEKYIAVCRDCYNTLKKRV

Compound | CC50 at 24 h [1] | EC50 (PFSK-1) | CC50 at 24 h [2] | EC50 (ZR-75-1) | D. melanogaster dNK substrate phosphorylation [3] | T. maritima TK substrate phosphorylation [4] | CC50 at 24 h (in vitro [5]) | CC50 at 24 h (in vitro [6]) | CC50 at 24 h (in vitro [7]) | CC50 at 24 h [8] | EC50 (Panc 02.03) | D. melanogaster dNK substrate phosphorylation ([3]; listed as LCB-1009-1) | T. maritima TK substrate phosphorylation ([4]; listed as LCB-1009-1) | D. melanogaster dNK substrate phosphorylation ([3]; listed as LCB-1015-1) | T. maritima TK substrate phosphorylation ([4]; listed as LCB-1015-1) | D. melanogaster dNK substrate phosphorylation ([3]; listed as LCB-1010-1) | T. maritima TK substrate phosphorylation ([4]; listed as LCB-1010-1) | D. melanogaster dNK substrate phosphorylation ([3]; listed as LCB-1022-1) | T. maritima TK substrate phosphorylation ([4]; listed as LCB-1022-1)
CCOC(=O)[C@@H]1O[C@H](n2cc(F)c(=O)[nH]c2=O)CC1(C)C(=O)OCC (stereo in doubt) [LCB-1024, (2R,5S)-diethyl5-(5-fluoro-2,4-dioxo-3,4-dihydropyrimidin-1(2H)-yl)-3-methyltetrahydrofuran-2,3-dicarboxylate] | > 460 µM | 190 µM | > 460 µM | > 460 µM | <0.1 10^6 μmol/min mg | 4.2 10^−3 μmol/min mg | > 460 µM | > 460 µM | > 460 µM |  |  |  |  |  |  |  |  |  | 
COC(=O)C1(C)C[C@H](n2cc(C)c(=O)[nH]c2=O)O[C@@H]1CO (mixture of isomers) [LCB-1009, (±) methyl 2-(hydroxymethyl)-3-methyl-5-(5-methyl-2,4-dioxo-3,4-dihydropyrimidin-1(2H)-yl)tetrahydrofuran-3-carboxylate] | > 500 µM | > 500 µM | > 500 µM | > 500 µM |  |  |  | > 500 µM | > 500 µM | > 500 µM | > 500 µM | 3.49 10^6 μmol/min mg | 11.9 10^−3 μmol/min mg |  |  |  |  |  | 
CCOC(=O)[C@@H]1O[C@H](n2ccc(=O)[nH]c2=O)CC1(C)C(=O)OCC (stereo partly drawn) [LCB-1025, (2R,5S)-diethyl 5-(2,4-dioxo-3,4-dihydropyrimidin-1(2H)-yl)-3-methyltetrahydrofuran-2,3-dicarboxylate] | > 460 µM | > 460 µM | > 460 µM | > 460 µM | <0.1 10^6 μmol/min mg | <1 10^−3 μmol/min mg | > 460 µM | > 460 µM | > 460 µM |  |  |  |  |  |  |  |  |  | 
CCOC(=O)[C@@H]1O[C@H](n2cc(C)c(=O)[nH]c2=O)CC1(C)C(=O)OCC (stereo partly drawn) [LCB-1019, (2R,5S)-diethyl 3-methyl-5-(5-methyl-2,4-dioxo-3,4-dihydropyrimidin-1(2H)-yl)tetrahydrofuran-2,3-dicarboxylate] | > 460 µM | > 460 µM | > 460 µM | > 460 µM | <0.1 10^6 μmol/min mg | 6.1 10^−3 μmol/min mg | > 460 µM | > 460 µM | > 460 µM |  |  |  |  |  |  |  |  |  | 
COC(=O)C1(C)C[C@H](n2cc(F)c(=O)[nH]c2=O)O[C@@H]1CO (mixture of isomers) [LCB-1015, 5-(5-Fluoro-2,4-dioxo-3,4-dihydro-2H-pyrimidin-1-yl)-2-hydroxymethyl-3-methyl-tetrahydro-furan-3-carboxylic acid methyl ester] | > 500 µM | 380 µM | > 500 µM | 420 µM |  |  |  | > 500 µM | > 500 µM | > 500 µM | > 500 µM |  |  | <0.1 10^6 μmol/min mg | <1 10^−3 μmol/min mg |  |  |  | 
Cc1cc(=O)[nH]c(=O)n1[C@H]1CC2(C)C(=O)OC[C@H]2O1 (single isomer, unassigned) [LCB-1020, 6-Methyl-1-(3a-methyl-4-oxo-hexahydro-furo[3,4-b]furan-2-yl)-1H-pyrimidine-2,4-dione] | > 500 µM | > 500 µM | > 500 µM | > 500 µM | <0.1 10^6 μmol/min mg | <1 10^−3 μmol/min mg | > 500 µM | > 500 µM | > 500 µM |  |  |  |  |  |  |  |  |  | 
COC(=O)C1(C)CC(n2cc(C)c(=O)[nH]c2=O)OC1CO (racemic) [LCB-1010, (±) methyl 2-(hydroxymethyl)-3-methyl-5-(5-methyl-2,4-dioxo-3,4-dihydropyrimidin-1(2H)-yl)tetrahydrofuran-3-carboxylate] | > 500 µM | > 500 µM | > 500 µM | 180 µM |  |  |  | > 500 µM | > 500 µM | > 500 µM | > 500 µM |  |  |  |  | 2.84 10^6 μmol/min mg | 6 10^−3 μmol/min mg |  | 
Cc1cc(=O)[nH]c(=O)n1[C@H]1CC(C)(CO)[C@@H](CO)O1 (mixture of isomers) [LCB-1021, 1-(4,5-Bis-hydroxymethyl-4-methyl-tetrahydro-furan-2-yl)-6-methyl-1H-pyrimidine-2,4-dione] | > 500 µM | > 500 µM | > 500 µM | > 500 µM | <0.1 10^6 μmol/min mg | 2.2 10^−3 μmol/min mg | > 500 µM | > 500 µM | > 500 µM |  |  |  |  |  |  |  |  |  | 
COC(=O)C1(C)C[C@H](n2cc(F)c(=O)[nH]c2=O)O[C@@H]1CO (mixture of isomers) [LCB-1022, 5-(5-Fluoro-2,4-dioxo-3,4-dihydro-2H-pyrimidin-1-yl)-2-hydroxymethyl-3-methyl-tetrahydro-furan-3-carboxylic acid methyl ester] |  |  |  |  |  |  | > 500 µM |  |  |  |  |  |  |  |  |  |  | 1.88 10^6 μmol/min mg | 3 10^−3 μmol/min mg
